Test results reported in patent US10106554B2, “7-(morpholinyl)-2-(N-piperazinyl) methyl thieno [2, 3-C] pyridine derivatives as anticancer drugs” (NATCO PHARMA LIMITED, priority 2014, dated 2018).

Tests used:
[1] = MTD (Maximum Tolerated Dose) study in mice, OECD procedure; conditions: both sexes, mouse, in vivo, oral; p.o, single dose, 14 days observation, Swiss Albino mice
Protocol: The method was carried out as per OECD procedure. The study was carried out using 5 (2 Male+3 Female) Swiss Albino Mice weighing between 18-30 gms. All the animals were fasted for 3 hrs prior to the oral administration of the drug. After preparing the sample administer immediately to their body all the animals according weight. […] At the end of 14 days all the surviving animals were autopsied and stomach were cut opened and observed for absorption of the drug through the GIT. The result is given in FIG. 1. • COMPOUND 2: MTD>2000 mg.kg, p.o (Single dose 14 days observation) • COMPOUND 1: MTD=500 mg/kg, p.o (Single dose 14 days observation) b. Antagonism of MIAPaca—2 Induced Tumor in Nude Mice: […]

[2] = system: MIAPaca-2 induced tumor; assay: Antagonism of MIAPaca-2 induced tumor in nude mice; assay type: in vivo; conditions: for mean tumor area: p.o daily for 30 days, control 33.13 mm^2
Protocol: This study was carried out with 20 Male Nude Mice. Weighing of Nude Mice were taken initially before inoculation of cell line and made into four groups.
Group-I: Positive control (5 Male)
Group-II: COMPOUND 2 (5 Male) (200 mg/kg, p.o)
Group-III: COMPOUND 1 (5 Male) (50 mg/kg, p.o)
Group-IV: Standard (5 Male) (Erlotinib hydrochloride—50 mg/kg, p.o & Gemcitabine hydrochloride—120 mg/kg, i.p.)
The cell line was inoculated to Nude Mice subcutaneously to the right hind limb flank at a strength of 1×10^7 cells/0.2 ml. […] The tumor volume was measured using the formula ½1×w^2 (l=length of tumor & w=width of tumor). When the mean tumor volume was recorded above 400 mm^3, the treatment with the above drugs were started. The above drugs were administered orally daily for 30 days, except Gemcitabine hydrochloride was administered on 1st and 3rd day of each week. Weight of Nude Mice was taken daily before dosing and tumor measurement was done on alternative days using digital Vernier caliper. Surviving animals were sacrificed after the dosing is complete for 30 days and organs (tumor with skin and pancreas) were collected.
Mice dead during experimental schedule, the tumor with skin and pancreas were collected and tumor with skin was stored in 10% buffered formalin and pancreas were stored in Bouin's solution. All the organs after collection were sent for histopathology.

[3] = system: NCI-H292 induced tumor (Erlotinib resistant lung cancer); assay: Antagonism of NCI-H292 induced tumor in nude mice (histopathology); assay type: in vivo; conditions: 50 mg/kg for 15 days; histopathology (4/5); positive control tumor present in all 5 animals
Protocol: The study was carried out with 15 Nude Mice (8 Male+7 Female).Weighing of Nude Mice were taken initially before inoculation of cell line and made into groups. Grouping as follows:
Group I: Positive control (4 Male+1 Female)
The cell line was inoculated to Nude Mice subcutaneously to the right hind limb flank at a strength of 6.25×10^5 cells/0.2 ml. […] The tumor volume was measured using the formula […] (l=length of tumor & w=width of tumor).When the mean tumor volume was recorded above 400 mm^3, the treatment with the above drugs will be started. […] Weight of Nude Mice Was taken daily before dosing and tumor measurement was done on alternative days using digital Vernier caliper. […] Mice dead during experimental schedule, the tumor with skin and liver were collected and stored in 10% buffered formalin .All the organs after collection were sent for histopathology.

[4] = 200 mg/kg, p.o, 5 mice, control 40%

SMILES | MTD at 14 days [1] | mean tumor area ([2]; 50 mg/kg) | remaining tumors showing no much activity (no invasion) ([2]; 50 mg/kg, p.o, 5 mice) | tumors showing invasion into underlying muscle ([2]; 50 mg/kg, p.o, 5 mice) | clearance of tumor, animals [3] | mean tumor area ([2]; 200 mg/kg) | tumors localized, no tumor invasion seen [2, 4] | tumors showing vascular invasion [2, 4]
Cc1c(CN2CCN(S(C)(=O)=O)CC2)sc2c(N3CCOCC3)nc(-c3cnc(N)nc3)cc12 [COMPOUND 1, 5-[3-methyl-2-[(4-methylsulfonylpiperazin-1-yl)methyl]-7-morpholino-thieno[2,3-c]pyridin-5-yl]pyrimidin-2-amine] | 500 mg/kg | 8.60 mm^2 | 80% | 20% | 80% | – | – | –
CS(=O)(=O)N1CCN(Cc2cc3cc(-c4cnc(N)nc4)nc(N4CCOCC4)c3s2)CC1 [COMPOUND 2, 5-[2-[(4-methylsulfonylpiperazin-1-yl)methyl]-7-morpholino-thieno[2,3-c]pyridin-5-yl]pyrimidin-2-amine] | > 2000 mg/kg | – | – | – | – | 10.90 mm^2 | 60% | 40%
